Assay results from patent US20110230481A2, “DERIVATIVES OF TETRABROMOBENZIMIDAZOLE, A PROCESS FOR THE PREPARATION THEREOF, A PHARMACEUTICAL COMPOSITION COMPRISING THE SAME, A METHOD OF USING THE SAME, A METHOD FOR MODULATING OR REGULATING SERINE/THREONINE KINASES, AND SERINE/THREONINE KINASES MODULATING AGENT” (SELVITA S.A., priority 2009, published 2011).

Key:
Test in all cases: KINOMEscan Max
Format in all cases: binding
STK33 = STK33 (Homo sapiens, UniProt Q9BYT3)
In short: (§1)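 Binding was measured by competition: compounds were tested for their ability to displace DNA-tagged kinases from an immobilized ligand directed at the active site, with quantitative PCR of the tag as read-out.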

PAK3 = PAK3 (Homo sapiens, UniProt O75914)
In short: as §1

PFTK1 = target: T1, PFTK1 (Homo sapiens, UniProt O94921); settings: 1 μM
T1 construct: DNA tag (qPCR read-out)
In short: as §1

SNARK = target: T2, SNARK (Homo sapiens, UniProt Q9H093); settings: 1 μM
T2 construct: DNA tag (qPCR read-out)
In short: as §1

CDK9 = target: T3, CDK9 (Homo sapiens, UniProt P50750)
T3 construct: DNA tag (qPCR read-out)
In short: as §1

ERK1 = target: T4, ERK1 (Homo sapiens, UniProt P27361)
T4 construct: purchased Ambit Kinomescan (contract panel, KINOMEscan Max)
T4 sequence (P27361 whole entry): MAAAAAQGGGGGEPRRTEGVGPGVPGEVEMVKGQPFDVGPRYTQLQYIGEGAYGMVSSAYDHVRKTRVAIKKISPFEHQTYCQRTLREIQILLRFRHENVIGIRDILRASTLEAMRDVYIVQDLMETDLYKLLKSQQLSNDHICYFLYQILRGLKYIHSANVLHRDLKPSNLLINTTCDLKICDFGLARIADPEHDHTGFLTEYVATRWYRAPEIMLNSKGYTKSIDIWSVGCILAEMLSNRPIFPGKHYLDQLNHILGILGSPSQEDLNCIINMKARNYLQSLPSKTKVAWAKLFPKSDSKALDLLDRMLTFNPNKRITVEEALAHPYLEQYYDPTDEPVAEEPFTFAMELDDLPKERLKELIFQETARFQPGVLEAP
In short: as §1

PRP4 = target: T5, PRP4 (Homo sapiens, UniProt Q13523)
T5 construct: purchased Ambit (KINOMEscan Max service)
In short: as §1

[1] = target: T6, JAK2(JH1domain-catalytic) (Homo sapiens, UniProt O60674); settings: 1 μM
T6 construct: JAK2(JH1domain-catalytic); purchased Ambit Kinomescan (contract screening)
In short: as §1

MST1 = MST1 (Homo sapiens, UniProt Q13043); settings: 1 μM
In short: as §1

PDGFRA = target: T7, PDGFRA (Homo sapiens, UniProt P16234)
T7 construct: DNA tag (qPCR read-out)
T7 sequence (P16234 24-1089): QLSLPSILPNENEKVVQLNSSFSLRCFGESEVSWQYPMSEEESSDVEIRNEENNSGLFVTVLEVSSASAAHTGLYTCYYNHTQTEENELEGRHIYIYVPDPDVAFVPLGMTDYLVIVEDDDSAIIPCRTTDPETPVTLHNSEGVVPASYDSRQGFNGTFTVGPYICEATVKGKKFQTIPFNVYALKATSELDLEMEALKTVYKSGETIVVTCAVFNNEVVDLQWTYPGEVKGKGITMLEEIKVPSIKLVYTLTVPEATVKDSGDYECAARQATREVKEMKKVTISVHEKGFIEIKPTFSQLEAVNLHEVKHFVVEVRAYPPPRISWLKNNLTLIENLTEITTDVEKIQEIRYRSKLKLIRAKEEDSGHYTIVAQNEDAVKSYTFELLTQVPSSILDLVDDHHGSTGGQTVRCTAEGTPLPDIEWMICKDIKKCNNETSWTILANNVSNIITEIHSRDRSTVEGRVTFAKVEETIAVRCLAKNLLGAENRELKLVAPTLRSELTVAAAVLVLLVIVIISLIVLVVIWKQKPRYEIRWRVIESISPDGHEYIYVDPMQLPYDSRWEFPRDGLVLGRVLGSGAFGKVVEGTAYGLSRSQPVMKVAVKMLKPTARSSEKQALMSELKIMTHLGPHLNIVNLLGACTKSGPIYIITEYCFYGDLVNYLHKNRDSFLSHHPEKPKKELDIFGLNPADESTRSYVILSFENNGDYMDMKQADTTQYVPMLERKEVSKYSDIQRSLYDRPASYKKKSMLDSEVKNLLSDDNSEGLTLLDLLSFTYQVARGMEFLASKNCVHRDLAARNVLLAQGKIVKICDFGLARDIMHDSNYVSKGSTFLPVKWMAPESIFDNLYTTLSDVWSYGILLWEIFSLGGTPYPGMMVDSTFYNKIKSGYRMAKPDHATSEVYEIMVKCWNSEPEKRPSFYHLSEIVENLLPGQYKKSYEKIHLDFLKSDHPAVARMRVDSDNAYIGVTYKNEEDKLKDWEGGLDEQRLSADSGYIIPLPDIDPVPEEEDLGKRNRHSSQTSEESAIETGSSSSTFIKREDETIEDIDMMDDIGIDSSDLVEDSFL
In short: as §1

CDC2L1 = target: T8, CDC2L1 (Homo sapiens, UniProt P21127)
T8 construct: DNA tag (qPCR label); purchased Ambit Kinomescan (contract screening)
T8 sequence (P21127 whole entry): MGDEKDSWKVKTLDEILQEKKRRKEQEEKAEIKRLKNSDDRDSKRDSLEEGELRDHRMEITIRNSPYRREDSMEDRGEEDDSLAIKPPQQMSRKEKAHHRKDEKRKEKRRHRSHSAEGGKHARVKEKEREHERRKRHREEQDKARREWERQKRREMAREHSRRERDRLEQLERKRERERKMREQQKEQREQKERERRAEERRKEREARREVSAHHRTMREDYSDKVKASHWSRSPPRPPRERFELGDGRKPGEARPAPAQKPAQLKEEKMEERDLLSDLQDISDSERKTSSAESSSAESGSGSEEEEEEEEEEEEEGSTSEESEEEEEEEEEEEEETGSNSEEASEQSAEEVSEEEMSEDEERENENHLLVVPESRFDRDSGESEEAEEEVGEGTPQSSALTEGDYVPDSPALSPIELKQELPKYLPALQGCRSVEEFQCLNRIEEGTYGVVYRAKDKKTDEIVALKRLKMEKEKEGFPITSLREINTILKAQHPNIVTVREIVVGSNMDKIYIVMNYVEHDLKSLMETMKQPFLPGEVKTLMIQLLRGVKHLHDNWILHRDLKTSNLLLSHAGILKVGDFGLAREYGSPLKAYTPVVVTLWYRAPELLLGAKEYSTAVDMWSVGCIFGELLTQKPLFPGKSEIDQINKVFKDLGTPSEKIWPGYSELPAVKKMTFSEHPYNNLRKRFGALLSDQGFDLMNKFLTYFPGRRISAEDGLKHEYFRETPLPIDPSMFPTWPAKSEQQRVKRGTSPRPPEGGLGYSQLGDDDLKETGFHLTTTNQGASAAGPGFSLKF
In short: as §1

BLK = BLK (Homo sapiens, UniProt P51451)
In short: as §1

PIK3CD = target: T9, PIK3CD (Homo sapiens, UniProt O00329)
T9 construct: DNA tag (qPCR read-out)
In short: as §1

DDR1 = target: T10, DDR1 (Homo sapiens, UniProt Q08345)
T10 construct: purchased Ambit (KINOMEscan Max panel service)
In short: as §1

CIT = CIT (Homo sapiens, UniProt O14578); settings: 1 μM
In short: as §1

PIP5K2B = target: T11, PIP5K2B (Homo sapiens, UniProt P78356)
T11 construct: purchased Ambit Kinomescan (contract screening)
In short: as §1

SBK1 = target: T12, SBK1 (Homo sapiens, UniProt Q52WX2)
T12 construct: purchased Ambit (KINOMEscan Max service)
T12 sequence (Q52WX2 whole entry): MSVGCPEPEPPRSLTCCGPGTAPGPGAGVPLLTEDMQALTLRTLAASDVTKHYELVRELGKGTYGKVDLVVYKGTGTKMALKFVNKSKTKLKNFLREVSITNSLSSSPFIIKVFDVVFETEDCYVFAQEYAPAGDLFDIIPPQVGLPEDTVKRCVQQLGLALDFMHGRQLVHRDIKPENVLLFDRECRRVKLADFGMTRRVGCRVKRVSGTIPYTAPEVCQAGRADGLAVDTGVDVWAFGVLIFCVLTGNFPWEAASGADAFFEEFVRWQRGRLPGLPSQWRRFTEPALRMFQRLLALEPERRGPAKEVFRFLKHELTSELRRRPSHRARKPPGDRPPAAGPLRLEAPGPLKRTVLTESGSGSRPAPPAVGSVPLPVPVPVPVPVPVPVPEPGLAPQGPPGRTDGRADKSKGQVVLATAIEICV
In short: as §1

[2] = target: ABL1(M351T)-phosphorylated (Homo sapiens, UniProt P00519, M351T)
In short: as §1

NEK1 = NEK1 (Homo sapiens, UniProt Q96PY6)
Chain of NEK1 (Q96PY6 whole entry): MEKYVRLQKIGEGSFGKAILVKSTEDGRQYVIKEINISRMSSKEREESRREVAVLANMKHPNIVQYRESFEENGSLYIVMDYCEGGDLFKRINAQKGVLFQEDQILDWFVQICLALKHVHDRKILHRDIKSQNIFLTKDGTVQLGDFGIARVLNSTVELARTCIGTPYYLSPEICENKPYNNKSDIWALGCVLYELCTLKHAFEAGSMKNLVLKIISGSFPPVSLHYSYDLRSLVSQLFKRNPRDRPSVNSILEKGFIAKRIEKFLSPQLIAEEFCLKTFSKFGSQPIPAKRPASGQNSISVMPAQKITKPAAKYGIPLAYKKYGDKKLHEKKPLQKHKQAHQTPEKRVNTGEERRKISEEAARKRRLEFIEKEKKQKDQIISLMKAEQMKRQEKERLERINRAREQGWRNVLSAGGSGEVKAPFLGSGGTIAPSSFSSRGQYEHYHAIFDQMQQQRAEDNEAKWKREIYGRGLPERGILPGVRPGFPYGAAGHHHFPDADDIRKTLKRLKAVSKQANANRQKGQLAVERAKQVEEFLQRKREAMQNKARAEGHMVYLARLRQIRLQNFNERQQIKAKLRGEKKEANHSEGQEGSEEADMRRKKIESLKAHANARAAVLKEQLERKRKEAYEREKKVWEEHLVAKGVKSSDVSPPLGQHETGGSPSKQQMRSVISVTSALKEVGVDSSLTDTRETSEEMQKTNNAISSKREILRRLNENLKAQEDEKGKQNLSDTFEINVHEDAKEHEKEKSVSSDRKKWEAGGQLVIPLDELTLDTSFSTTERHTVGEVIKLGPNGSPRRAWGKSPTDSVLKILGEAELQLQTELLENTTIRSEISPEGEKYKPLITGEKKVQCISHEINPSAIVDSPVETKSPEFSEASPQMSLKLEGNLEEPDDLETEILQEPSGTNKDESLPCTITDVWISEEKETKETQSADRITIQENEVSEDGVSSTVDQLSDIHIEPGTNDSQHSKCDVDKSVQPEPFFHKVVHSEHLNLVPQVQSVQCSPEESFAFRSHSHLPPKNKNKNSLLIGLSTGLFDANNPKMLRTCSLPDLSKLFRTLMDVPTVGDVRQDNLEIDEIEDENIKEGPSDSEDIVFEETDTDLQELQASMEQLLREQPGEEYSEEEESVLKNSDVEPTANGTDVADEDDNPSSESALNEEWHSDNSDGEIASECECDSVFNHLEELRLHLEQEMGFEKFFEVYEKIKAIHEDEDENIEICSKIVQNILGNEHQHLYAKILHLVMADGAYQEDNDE
In short: as §1

NEK4 = NEK4 (Homo sapiens, UniProt P51957)
Chain of NEK4 (P51957 whole entry): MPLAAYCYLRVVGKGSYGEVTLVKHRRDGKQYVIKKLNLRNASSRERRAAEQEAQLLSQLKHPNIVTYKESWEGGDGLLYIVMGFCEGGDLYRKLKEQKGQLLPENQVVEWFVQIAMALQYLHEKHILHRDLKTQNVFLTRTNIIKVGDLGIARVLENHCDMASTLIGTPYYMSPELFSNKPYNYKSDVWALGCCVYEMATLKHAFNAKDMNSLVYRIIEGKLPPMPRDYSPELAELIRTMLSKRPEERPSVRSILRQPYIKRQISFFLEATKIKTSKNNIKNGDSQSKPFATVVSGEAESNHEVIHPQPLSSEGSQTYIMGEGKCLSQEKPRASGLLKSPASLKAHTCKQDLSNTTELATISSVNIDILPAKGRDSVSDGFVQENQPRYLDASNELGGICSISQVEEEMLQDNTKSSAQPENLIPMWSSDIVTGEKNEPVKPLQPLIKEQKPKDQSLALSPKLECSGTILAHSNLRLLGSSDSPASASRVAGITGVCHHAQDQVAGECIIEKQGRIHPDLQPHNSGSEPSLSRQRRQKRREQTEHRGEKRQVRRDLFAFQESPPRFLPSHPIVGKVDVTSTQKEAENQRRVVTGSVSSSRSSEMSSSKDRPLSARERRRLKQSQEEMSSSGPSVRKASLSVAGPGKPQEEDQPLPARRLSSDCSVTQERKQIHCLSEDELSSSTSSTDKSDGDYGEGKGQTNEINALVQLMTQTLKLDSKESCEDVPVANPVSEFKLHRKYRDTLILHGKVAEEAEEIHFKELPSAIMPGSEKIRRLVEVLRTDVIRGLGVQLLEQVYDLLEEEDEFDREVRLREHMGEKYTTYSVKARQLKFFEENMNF
In short: as §1

SIK = target: T13, SIK (Homo sapiens, UniProt P57059); settings: 1 μM
T13 construct: DNA tag (qPCR read-out)
In short: as §1

CDK5 = target: T14, CDK5 (Homo sapiens, UniProt Q00535)
T14 construct: DNA tag (qPCR label); purchased Ambit Kinomescan (contract screening)
In short: as §1

ARK5 = target: T15, ARK5 (Homo sapiens, UniProt O60285); settings: 1 μM
T15 construct: DNA tag (qPCR label); purchased Ambit Kinomescan (contract screening)
In short: as §1

CLK4 = target: T16, CLK4 (Homo sapiens, UniProt Q9HAZ1)
T16 construct: DNA tag (qPCR read-out); purchased Ambit Kinomescan
In short: as §1

NEK3 = NEK3 (Homo sapiens, UniProt P51956)
In short: as §1

AKT3 = target: T17, AKT3 (Homo sapiens, UniProt Q9Y243)
T17 construct: purchased Ambit (KINOMEscan Max service)
In short: as §1

KIT = KIT (Homo sapiens, UniProt P10721)
In short: as §1

YSK4 = YSK4 (Homo sapiens, UniProt Q56UN5)
In short: as §1

ERBB4 = target: T18, ERBB4 (Homo sapiens, UniProt Q15303)
T18 construct: purchased Ambit Kinomescan (contract panel, KINOMEscan Max)
In short: as §1

PFPK5(P.falciparum) = target: T19, PFPK5(P.falciparum) (Plasmodium falciparum, UniProt P61075)
T19 construct: DNA tag (qPCR read-out)
T19 sequence (P61075 whole entry): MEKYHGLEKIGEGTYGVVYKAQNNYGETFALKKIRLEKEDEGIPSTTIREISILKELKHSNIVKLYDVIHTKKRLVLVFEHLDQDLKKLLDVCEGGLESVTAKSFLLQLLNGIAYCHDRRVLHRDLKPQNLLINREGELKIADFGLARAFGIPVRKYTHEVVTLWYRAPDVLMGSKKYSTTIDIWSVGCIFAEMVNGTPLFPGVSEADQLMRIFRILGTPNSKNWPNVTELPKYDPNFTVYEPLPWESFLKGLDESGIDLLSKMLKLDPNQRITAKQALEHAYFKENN
In short: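 DNA-tagged kinase + immobilized active-site directed ligand + test compound combined; ligand-bound kinase quantified by qPCR of tag. Competition binding format.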

FER = target: T20, FER (Homo sapiens, UniProt P16591)
T20 construct: purchased Ambit Kinomescan (contract panel, KINOMEscan Max)
In short: as §1

EPHA5 = target: T21, EPHA5 (Homo sapiens, UniProt P54756); settings: 1 μM
T21 construct: purchased Ambit (KINOMEscan Max panel service)
In short: as §1

MEK4 = target: T22, MEK4 (Homo sapiens, UniProt P45985)
T22 construct: purchased Ambit (KINOMEscan Max service)
In short: as §1

ASK2 = target: T23, ASK2 (Homo sapiens, UniProt O95382)
T23 construct: DNA tag (qPCR read-out)
In short: as §1

GSK3B = target: T24, GSK3B (Homo sapiens, UniProt P49841)
T24 construct: purchased Ambit Kinomescan (contract panel, KINOMEscan Max)
In short: as §1

With NCCCNc1nc2c(Br)c(Br)c(Br)c(Br)c2[nH]1 [Compound 11, N-(3-aminopropyl)-4,5,6,7-tetrabromo-1H-benzo[d]imidazol-2-amine] the remaining binding at 1 µM (STK33) was 77%, the remaining binding at 1 µM (PAK3) was 91% and the “% binding” value (PFTK1) was 100%. The “% binding” value (SNARK) was 54%, the remaining binding at 1 µM (CDK9) was 90% and the remaining binding at 1 µM (ERK1) was 100%. The remaining binding at 1 µM (PRP4) was 84%, the “% binding” value [1] was 98% and the “% binding” value (MST1) was 100%. For the same compound, the remaining binding at 1 µM (PDGFRA) was 100%, the remaining binding at 1 µM (CDC2L1) was 100% and the remaining binding at 1 µM (BLK) was 96%. For the same compound, the remaining binding at 1 µM (PIK3CD) was 100%, the remaining binding at 1 µM (DDR1) was 100% and the “% binding” value (CIT) was 93%. The remaining binding at 1 µM (PIP5K2B) was 97%, the remaining binding at 1 µM (SBK1) was 59% and the remaining binding at 1 µM [2] was 100%. The remaining binding at 1 µM (NEK1) was 100%, the remaining binding at 1 µM (NEK4) was 98% and the “% binding” value (SIK) was 100%. The remaining binding at 1 µM (CDK5) was 100%, the “% binding” value (ARK5) was 100% and the remaining binding at 1 µM (CLK4) was 22%. The remaining binding at 1 µM (NEK3) was 93%, the remaining binding at 1 µM (AKT3) was 83% and the remaining binding at 1 µM (KIT) was 96%. The remaining binding at 1 µM (YSK4) was 95%, the remaining binding at 1 µM (ERBB4) was 100% and the remaining binding at 1 µM (PFPK5(P.falciparum)) was 100%. The remaining binding at 1 µM (FER) was 100%, the “% binding” value (EPHA5) was 100% and the remaining binding at 1 µM (MEK4) was 82%. The remaining binding at 1 µM (ASK2) was 90% and the remaining binding at 1 µM (GSK3B) was 100%.
